# Test results as given in PubChem BioAssay AID1259407 (Chemical Carcinogenesis Research Information System (CCRIS), 2018).
# The source made the active and inactive calls. No rule for the calls is given here.
# Tested on: CCRIS mutagenicity, Ames/micronucleus/aberration tests
# Assay: CCRIS mutagenicity studies
# Details: Method: PREINCUBATION
# [1] = Test System: AMES SALMONELLA TYPHIMURIUM, Strain/Indicator: TA98, Metabolic Activation: NONE
# [2] = Test System: AMES SALMONELLA TYPHIMURIUM, Strain/Indicator: TA100, Metabolic Activation: NONE
# [3] = Test System: AMES SALMONELLA TYPHIMURIUM, Strain/Indicator: TA1535, Metabolic Activation: NONE
# [4] = Test System: AMES SALMONELLA TYPHIMURIUM, Strain/Indicator: TA1537, Metabolic Activation: NONE
Structure (SMILES),"mutagenic call (Test System: AMES SALMONELLA TYPHIMURIUM, Strain/Indicator: TA98, Metabolic Activation: HAMSTER, LIVER, S-9, AROCLOR 1254 (10%))",mutagenic call [1],"mutagenic call (Test System: AMES SALMONELLA TYPHIMURIUM, Strain/Indicator: TA98, Metabolic Activation: RAT, LIVER, S-9, AROCLOR 1254 (10%))","mutagenic call (Test System: AMES SALMONELLA TYPHIMURIUM, Strain/Indicator: TA100, Metabolic Activation: HAMSTER, LIVER, S-9, AROCLOR 1254 (10%))",mutagenic call [2],"mutagenic call (Test System: AMES SALMONELLA TYPHIMURIUM, Strain/Indicator: TA100, Metabolic Activation: RAT, LIVER, S-9, AROCLOR 1254 (10%))","mutagenic call (Test System: AMES SALMONELLA TYPHIMURIUM, Strain/Indicator: TA1535, Metabolic Activation: HAMSTER, LIVER, S-9, AROCLOR 1254 (10%))",mutagenic call [3],"mutagenic call (Test System: AMES SALMONELLA TYPHIMURIUM, Strain/Indicator: TA1535, Metabolic Activation: RAT, LIVER, S-9, AROCLOR 1254 (10%))","mutagenic call (Test System: AMES SALMONELLA TYPHIMURIUM, Strain/Indicator: TA1537, Metabolic Activation: HAMSTER, LIVER, S-9, AROCLOR 1254 (10%))",mutagenic call [4],"mutagenic call (Test System: AMES SALMONELLA TYPHIMURIUM, Strain/Indicator: TA1537, Metabolic Activation: RAT, LIVER, S-9, AROCLOR 1254 (10%))","mutagenic call (Test System: AMES SALMONELLA TYPHIMURIUM, Strain/Indicator: TA98, Metabolic Activation: RAT LIVER S-9, PHENOBARBITAL AND 5,6-BENZOFLAVONE)","mutagenic call (Test System: AMES SALMONELLA TYPHIMURIUM, Strain/Indicator: TA100, Metabolic Activation: RAT LIVER S-9, PHENOBARBITAL AND 5,6-BENZOFLAVONE)","mutagenic call (Test System: AMES SALMONELLA TYPHIMURIUM, Strain/Indicator: TA1535, Metabolic Activation: RAT LIVER S-9, PHENOBARBITAL AND 5,6-BENZOFLAVONE)","mutagenic call (Test System: AMES SALMONELLA TYPHIMURIUM, Strain/Indicator: TA1537, Metabolic Activation: RAT LIVER S-9, PHENOBARBITAL AND 5,6-BENZOFLAVONE)","mutagenic call (Test System: E.COLI, Strain/Indicator: WP2 UVRA, Metabolic Activation: NONE)","mutagenic call (Test System: E.COLI, Strain/Indicator: WP2 UVRA, Metabolic Activation: RAT LIVER S-9, PHENOBARBITAL AND 5,6-BENZOFLAVONE)"
O=[N+]([O-])c1ccc(NCCO)c(OCCO)c1,active; positive,active; positive,active; positive,active; positive,active; positive,active; positive,inactive; negative,active; positive,inactive; negative,active; positive,active; positive,active; positive,–,–,–,–,–,–
CCCCCN(CCCOC)C(=O)C(CCC(=O)O)NC(=O)c1ccc(Cl)c(Cl)c1 (configuration not stated),–,inactive; negative,–,–,inactive; negative,–,–,inactive; negative,–,–,inactive; negative,–,inactive; negative,inactive; negative,inactive; negative,inactive; negative,inactive; negative,inactive; negative
